The term AC50 denotes the midpoint of the concentration-response curve, whichever way the signal moves.

Consider 57 molecules from patent US20120010177A1, “MicroRNA Modulators and Method for Identifying And Using The Same” (The Wistar Institute / North Carolina State University, priority 2008, published 2012).

Structures are written as SMILES.

In the first assay the test system is miR-21. The assay can be described thus: High throughput primary miR-21 FLuc reporter assay (concentration-response). The assay is classed as cell-based, human. The following applies: HeLa Luc-miR-21 reporter, 48-hour incubation. The procedure:
Primary miR-21 Assay. The primary miR-21 FLuc reporter assay is carried out with HeLa cells expressing the Luc-miR-21 reporter using a 48-hour incubation time. Active compounds that increase the luciferase response are identified based upon inhibition of miR-21.
SAR. The concentration-response data for the entire high throughput screen is plotted and modeled by a four parameter logistic fit and SAR analysis is performed according to conventional approaches (Iglese, et al. (2006) Proc. Natl. Acad. Sci. USA […]:11473-8). In brief, Class 1.1 and 1.2 are full curves containing upper and lower asymptotes with efficacy ≧80% and <80%, respectively. Class 2.1 and 2.2 are incomplete curves having only one asymptote with efficacy ≧80% and <80%, respectively. Class 3 curves show activity at only the highest concentration or are poorly fit. […] For SAR analysis, compounds associated with Class 1 and 2.1 curves are clustered using LEADSCOPE® fingerprints. […] Compounds sharing a common scaffold form a series. Candidate series and singletons are chosen for follow up studies. For each lead or series, an appropriate library design method (e.g., point substitution library or matrix library) is selected. Typically, precursors are synthesized and a library of 15-25 compounds is produced for analysis in the above-described assays.
On the technique in general: Reporter assays use an easily measured gene product as a stand-in for the process of interest.
The molecule `Nc1[nH]cnc2nc(SCC(=O)Nc3ccccc3F)nc1-2` [Compound 154, N\C1═C2/N═C(SCC(═O)NC3═C/C═C\C═C\3F)\N═C\2\N═C/N1] returned an Efficacy of −64.80.
On the same count and under the same terms, in the case of `CC(C)c1ccc2nc(SCC(=O)NCC3CCCO3)c(C#N)cc2c1` (stereo not drawn) [Compound 135, CC(C)C1═C/C═C2/N═C(SCC(═O)NCC3CCCO3)\C(═C/C\2═C\1)C#N] it was −60.74; in that of `CC(=NNC(=O)c1ccoc1C)c1cccc2ccccc12` [Compound 209, CC(═NNC(═O)C1═C(C)/O/C═C\1)C2═C/C═C\C3═C\C═C/C═C\2\3], −65.67.

Staying with this assay, now noted: HeLa Luc-miR-21 reporter, 48-hour incubation, four parameter logistic fit.
Consider `Nc1[nH]cnc2nc(SCC(=O)Nc3ccccc3F)nc1-2` [Compound 154, N\C1═C2/N═C(SCC(═O)NC3═C/C═C\C═C\3F)\N═C\2\N═C/N1], for which the “Curve Class” value is −2.2.
Still for that read-out and setting: in the case of `CC(C)c1ccc2nc(SCC(=O)NCC3CCCO3)c(C#N)cc2c1` (stereo not drawn) [Compound 135, CC(C)C1═C/C═C2/N═C(SCC(═O)NCC3CCCO3)\C(═C/C\2═C\1)C#N] it was −2.2; in that of `CC(=NNC(=O)c1ccoc1C)c1cccc2ccccc12` [Compound 209, CC(═NNC(═O)C1═C(C)/O/C═C\1)C2═C/C═C\C3═C\C═C/C═C\2\3], −2.2.

Staying with this assay, now noted: HeLa Luc-miR-21 reporter, 48-hour incubation; read-out: AC50.
Take `Nc1[nH]cnc2nc(SCC(=O)Nc3ccccc3F)nc1-2` [Compound 154, N\C1═C2/N═C(SCC(═O)NC3═C/C═C\C═C\3F)\N═C\2\N═C/N1]: the half-maximal activity concentration (AC50) was 14.7 µM.
Same read-out and setting: in the case of `CC(C)c1ccc2nc(SCC(=O)NCC3CCCO3)c(C#N)cc2c1` (stereo not drawn) [Compound 135, CC(C)C1═C/C═C2/N═C(SCC(═O)NCC3CCCO3)\C(═C/C\2═C\1)C#N] it was 5.85 µM; in that of `CC(=NNC(=O)c1ccoc1C)c1cccc2ccccc12` [Compound 209, CC(═NNC(═O)C1═C(C)/O/C═C\1)C2═C/C═C\C3═C\C═C/C═C\2\3], 7.36 µM.

The same assay, now with this note: Homo sapiens.
In the case of `COc1ccc(-c2c/c(=N\CC(=O)O)c3ccccc3o2)cc1.[O-][Cl+3]([O-])([O-])O` [Compound 263], the concentration at half-maximal activity (AC50) was found to be 3.69 µM.

The assay is the same for the next values; noted with them: Homo sapiens, HeLa, 48 h, HeLa Luc-miR-21 reporter, 48-hour incubation; read-out: AC50.
Take `CN(C)c1ccc(CNc2nc(-c3ccco3)nn2S(C)(=O)=O)cc1` [Compound 33]: the half-maximal activity concentration (AC50) is 7.36 µM.
As for `O=C(COc1ccccc1F)Nc1ccc(-c2nc3ccccc3s2)cc1` [Compound 166], the AC50 was found to be 1.47 µM.
As for `O=C(Nc1ccc2nc3n(c(=O)c2c1)CCCCC3)c1ccccc1Cl` [Compound 112], the AC50 stood at 6.56 µM.
Turning to `CCn1c2ccccc2c2cc(NC(=O)COC(=O)Cc3cn4ccsc4n3)ccc21` [Compound 171], the AC50 turned out to be 16.5 µM.
Take `COc1ccc(-c2nn3c(C4CCCCC4)nnc3s2)cc1OC` [Compound 56]: the half-maximal activity concentration (AC50) was found to be 3.29 µM.
The same measure, in the same setting: in the case of `COc1cc2cc(C#N)c(SCC(=O)N3CCOCC3)nc2cc1OC` [Compound 144] it was 11.7 µM; in that of `CC1C2CC(C/C2=N\NC(=O)c2cccs2)C1(C)C` (stereo not drawn) [Compound 201], 5.21 µM; in that of `Cc1nnc(SCc2nc(N)nc(Nc3ccccc3)n2)s1` [Compound 60], 11.7 µM.
On to `Nc1c(C(=O)Nc2ccc(S(=O)(=O)N3CCCC3)cc2)sc2nc3cc4c(cc3cc12)CCC4` [Compound 85], for which the concentration at half-maximal activity (AC50) was 13.1 µM.
For `C/C(CC(=O)Nc1cc(C)cc(C)c1)=N\NC(=O)c1ccccn1` [Compound 195], the concentration at half-maximal activity (AC50) was 4.65 µM.
On to `CC(C)(C)C1CCc2nc(NC(=O)Cc3cn4ccsc4n3)sc2C1` (stereo not drawn) [Compound 95], for which the AC50 came to 8.26 µM.
Still for that read-out and setting: under `O=C(NN=C1CCCC1)c1cccs1` [Compound 186] stands 1.65 µM; under `CC(=O)Nc1ccc(NC(=O)COc2ccc(Cl)cc2Cl)cc1` [Compound 175], 14.7 µM; under `Nc1cc(N)nc(SCC(=O)Nc2ccc(Br)cc2Cl)n1` [Compound 113], 11.7 µM.
Still for that read-out and setting: in the case of `CCS(=O)(=O)n1nc(-c2ccccc2)nc1NCc1ccco1` [Compound 41] it was 18.5 µM; in that of `CCc1nonc1NC(=O)c1oc2ccc(C)cc2c1C` [Compound 73], 5.85 µM; in that of `Nc1c(C(=O)Nc2cc(F)ccc2F)sc2nc(-c3cccc(O)c3)ccc12` [Compound 84], 11.7 µM.
The same measure, in the same setting: under `Cc1ccc2c(C)c(C(=O)N(C)C(C)c3ccncn3)oc2c1C` (stereo not drawn) [Compound 77] stands 13.1 µM.
As to `C/C(CC(=O)NCc1ccccc1Cl)=N\NC(=O)c1ccccn1` [Compound 213], the AC50 was found to be 8.26 µM.
Turning to `Cc1ccc(Nc2ncnc(N)n2)cc1C` [Compound 61], the AC50 stood at 13.1 µM.
On the same count and under the same terms, under `Nc1c(C(=O)Nc2ccccc2Br)sc2nc(-c3cccs3)ccc12` [Compound 82] stands 7.36 µM; under `COc1cccc(OC)c1-c1nn2c(-c3ccco3)nnc2s1` [Compound 57], 11.7 µM; under `CCc1cccc(-n2nnc(-c3nc(-c4ccccc4Cl)no3)c2N)c1` [Compound 26], 16.5 µM.
With `CN1CCN(NC(=O)Nc2ccc(Br)cc2Cl)CC1` [Compound 116], the half-maximal activity concentration (AC50) worked out at 13.1 µM.
The same measure, in the same setting: under `O=C(Nc1ccccc1OC(=O)c1ccc(Cl)cc1)c1ccc(Cl)cc1` [Compound 107] stands 11.7 µM; under `CSc1nsc(SCC(=O)Nc2ccccc2F)n1` [Compound 158], 14.7 µM; under `C/C(=N\NC(=O)c1ccoc1C)c1ccc(Br)s1` [Compound 219], 11.7 µM.
On the same count and under the same terms, under `COc1ccc(-n2ncc3c(NCCCn4ccnc4)ncnc32)cc1` [Compound 247] stands 10.4 µM.
Same read-out and setting: in the case of `Cn1nnc2cc(C(=O)Nc3ccccc3F)ccc21` [Compound 108] it was 14.7 µM; in that of `Cc1ccc(-c2nsc(SCC(=O)Nc3ccc4c(c3)OCO4)n2)cc1` [Compound 161], 16.5 µM; in that of `COc1ccc(-c2nnc(SCC(=O)Nc3cccc(C)c3)s2)cc1` [Compound 151], 13.1 µM.
With `COCC(=O)Nc1c(C(=O)Nc2ccc3c(c2)OCCO3)oc2ccccc12` [Compound 100], the AC50 amounted to 0.66 µM.
Take `COc1ccc(OCC(=O)Nc2ccc(-c3nc4cc(C)c(C)cc4o3)cc2)cc1` [Compound 165]: the AC50 was 0.13 µM.
For the molecule `Nc1c(C(=O)Nc2ccc(Cl)cc2F)sc2nc(-c3cccs3)ccc12` [Compound 87], the AC50 is 16.5 µM.
Take `Cc1occc1C(=O)N/N=C(\S)Nc1ccccc1C(F)(F)F` [Compound 211]: the AC50 came out at 8.26 µM.
Still for that read-out and setting: in the case of `Cc1ccc(NC(=O)CSc2nnc(-c3cccs3)o2)cc1S(=O)(=O)N(C)C` [Compound 141] it was 8.26 µM; in that of `N#CC1=C(SCC(=O)Nc2ccccc2)NC(=O)CC1c1ccc(O)cc1` (stereo not drawn) [Compound 136], 6.56 µM; in that of `Cc1oc(/C=N/NS(=O)(=O)c2ccccc2)cc1Br` [Compound 238], 13.1 µM.
For `CCCNC(=O)COCc1cc(-c2ccc(F)cc2)on1` [Compound 170], the AC50 came out at 16.5 µM.
On to `O=C(N/N=C/c1ccc(OC(=O)c2cccs2)cc1)c1cccc(F)c1` [Compound 235], for which the concentration at half-maximal activity (AC50) amounted to 18.5 µM.
Consider `CC(C)COc1ccc(C(=O)Nc2cc(-c3ccccc3)no2)cc1` [Compound 88], for which the concentration at half-maximal activity (AC50) came to 4.65 µM.

The assay is the same for the next values; noted with them: Homo sapiens, Table 12 singletons; read-out: AC50.
As for `CN(C)c1ccc(-n2cccc2/C=N/n2cnnc2)cc1` [Compound 282], the AC50 came out at 8.26 µM.
Same read-out and setting: under `O=C(Nc1ccccc1)c1cc2n(n1)C(C(F)(F)F)CC(C1CC1)N2` (stereo not drawn) [Compound 272] stands 6.56 µM; under `Nc1ccc2c(c1)Cc1cc([N+](=O)[O-])ccc1-2` [Compound 299], 14.7 µM; under `CCOC(=O)C1CCCN(Cc2cccc(Cl)c2)C1` (stereo not drawn) [Compound 335], 18.5 µM.
Still for that read-out and setting: in the case of `O=C(CC1NCCc2ccccc21)Nc1cccc(Cl)c1` (stereo not drawn) [Compound 315] it was 16.5 µM; in that of `CSc1c(C#N)c(N)c(C#N)c2c1COC(C)(C)C2` [Compound 332], 18.5 µM.
Take `CCc1cccc(CC)c1N(COC)C(=O)Cn1c(CC)nc2ccccc21` [Compound 307]: the concentration at half-maximal activity (AC50) stood at 14.7 µM.
In the case of `COc1ccc(C2CC(C)(c3ccc(OC)cc3)Nc3ccccc3N2)cc1` (stereo not drawn) [Compound 278], the AC50 stood at 7.36 µM.
In the case of `Nc1cccc(CCc2nc3ccccc3[nH]2)c1` [Compound 336], the AC50 was found to be 18.5 µM.
Still for that read-out and setting: under `Cn1c(=N)n(CC(=O)C(C)(C)C)c2ccccc21` [Compound 338] stands 18.5 µM.
Still for that read-out and setting: under `Cn1nc2c3ccccc3n(Cc3ccccc3)c2nc1=S` [Compound 311] stands 14.7 µM.

Staying with this assay, now noted: Table 12 singletons; read-out: AC50.
Regarding `COC(=O)C1C(=O)C=C(Nc2ccc(F)cc2F)CC1c1ccccc1` (stereo not drawn) [Compound 343], the half-maximal activity concentration (AC50) was determined as 18.5 µM.
